Source: patent US12152020B2, “Pesticidally active azole-amide compounds” (SYNGENTA PARTICIPATIONS AG, priority 2018, dated 2024)

How the values were obtained:
Type in all cases: in vivo
[1] = test system: Myzus persicae (Green Peach Aphid); assay: Example B8: Myzus persicae intrinsic activity, sucrose solution under Parafilm, 24-well; settings: 120 h, test rate of 12 ppm, 5 days after infestation
How it was run: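 Compounds, diluted from 10′000 ppm DMSO stocks, were mixed with sucrose solution in wells sealed with stretched Parafilm. Aphid-infested pea seedlings were placed on the Parafilm, and the covered plate was turned upside down. Mortality was scored 5 days after infestation.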

[2] = test system: Tetranychus urticae (Two-Spotted Spider Mite); assay: Example B11: Tetranychus urticae feeding/contact activity, bean leaf discs; settings: foliar, 192 h
Description: Example B11: Tetranychus urticae (Two-Spotted Spider Mite): Feeding/Contact Activity
Bean leaf discs on agar in 24-well microtiter plates were sprayed with aqueous test solutions prepared from 10′000 ppm DMSO stock solutions. After drying the leaf discs were infested with a mite population of mixed ages. The samples were assessed for mortality on mixed population (mobile stages) 8 days after infestation.

[3] = test system: Plutella xylostella (Diamond Back Moth); assay: Example B5: Plutella xylostella, artificial diet in 24-well plates, eggs; settings: 192 h, application rate of 200 ppm, 8 days after infestation, in comparison to untreated samples, read-out: effect in at least one of the two categories (mortality or growth inhibition)
How it was run: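 Artificial diet in 24-well plates treated with aqueous test solutions made from 10′000 ppm DMSO stocks, dried, then infested with Plutella eggs. Mortality and growth inhibition scored against untreated samples 8 days after infestation.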

[4] = test system: Spodoptera littoralis (Egyptian Cotton Leaf Worm); assay: Example B9: Spodoptera littoralis, cotton leaf discs sprayed, L1 larvae; settings: foliar, 72 h, application rate of 200 ppm, five L1 larvae, 3 days after infestation, in comparison to untreated samples, read-out: control in at least one of the categories (mortality, anti-feedant effect, or growth inhibition)
How it was run: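 Cotton leaf discs on agar sprayed with aqueous solutions made from 10′000 ppm DMSO stocks, dried, then infested with five L1 larvae. Mortality, anti-feeding and growth inhibition assessed against untreated samples 3 days after infestation; control counted when any category exceeded untreated.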

[5] = test system: Chilo suppressalis (Striped Rice Stemborer); assay: Example B4: Chilo suppressalis, artificial diet, L2 larvae; settings: 144 h, application rate of 200 ppm, 6 days after infestation, in comparison to untreated samples, read-out: control in at least one of the categories (mortality, anti-feedant effect, or growth inhibition)
How it was run: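 Artificial diet was treated with aqueous dilutions made from 10'000 ppm DMSO stocks, dried, then infested with L2 larvae at 6–8 per well. Mortality, antifeedant effect and growth inhibition were assessed against untreated samples 6 days after infestation.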

COCCOc1nc(C(C)NC(=O)c2cc(C(F)(F)F)cc(C(F)(F)F)c2)n(-c2ncccn2)n1 (centres unmarked) [Compound P36, N-[1-[5-(2-methoxyethoxy)-2-pyrimidin-2-yl-1,2,4-triazol-3-yl]ethyl]-3,5-bis(trifluoromethyl) benzamide]
≥ 80%: mortality at 12 ppm [1] | mortality at 200 ppm [2] | percent effect (mortality or growth inhibition) at 200 ppm [3] | percent control (mortality, anti-feedant effect or growth inhibition) at 200 ppm [4] | percent control (mortality, anti-feedant effect or growth inhibition) at 200 ppm [5]
